Data set [1] concerns HBV replication in HepAD38 cells. Kind of data set: Anti-HBV replication assay in HepAD38 cells (QPCR of extracellular HBV DNA). The format is cell-based, HBV (genotype D, serotype ayw). The settings on record: Hepatitis B virus, 168 h, 7 days incubation, extracellular HBV DNA by QPCR, read-out: Anti-HBV EC50. A digest of the protocol:
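Read-out is QPCR of HBV DNA released into culture supernatant, converted to percent of vehicle control and fitted to give EC50. Cells were HepAD38 induced by tetracycline removal and dosed […] for 7 days.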

The nature of data set [2]: In vitro cytotoxicity assay (MTT cell viability) in HepG2 cells. The format is cell-based, human. The settings on record: human. A digest of the protocol:
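CC50 values reflect loss of HepG2 viability after a 7-day exposure at 37 °C, 5% CO2. After 3-4 h with MTT, solubilized formazan was quantified at 492 nm relative to vehicle wells.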

What is called EC50 is the midpoint of the concentration-response curve. For orientation: CC50 means the concentration that lowers cell viability or growth by half. A high value points to better tolerance by the cells. `Cc1noc([C@H](C)NC(=O)C(=O)c2c(Cl)c(C(=O)Nc3cnc(F)c(C)c3)c3n2CCC3)n1` [Example 736, (S)-6-chloro-N-(6-luoro-5-methylpyridin-3-yl)-5-(2-((1-(3-methyl-1,2,4-oxadiazol-5-yl)ethyl)amino)-2-oxoacetyl)-2,3-dihydro-1H-pyrrolizine-7-carboxamide]: the EC50 in data set [1] is under 0.05 µM. The compound also came in with a CC50 at 7 days in data set [2] of 5 to 30 µM.
The matching figures for `CCn1c(C)c(C(=O)Nc2ccc(F)c(C)c2)c(C)c1C(=O)C(=O)N[C@]1(C)CC[C@@H](O)CC1` [Example 696]: under 0.05 µM and over 30 µM.
The matching figures for `Cc1nc(CCNC(=O)C(=O)c2c(C)c(C(=O)Nc3ccc(F)c(C)c3)c(C)n2C)c(C)s1` [Example 327, 5-(2-((2-(2,5-dimethylthiazol-4-yl)ethyl)amnio)-2-oxoacetyl)-N-(4-fluoro-3-methylphenyl)-1,2,4-trimethyl-1H-pyrrole-3-carboxamide]: under 0.05 µM and over 30 µM.
As for `Cc1cc(NC(=O)c2c(C)c(C(=O)C(=O)N[C@H](CO)C(=O)O)n(C)c2C)ccc1F` [Example 33, (2-(4-((4-fluoro-3-methylphenyl)carbamoyl)-1,3,5-trimethyl-1H-pyrrol-2-yl)-2-oxoacetyl)-D-serine], the EC50 in data set [1] is over 1 µM. Besides, the CC50 at 7 days in data set [2] was over 30 µM.
In the same order, the values of `Cc1cc(NC(=O)c2c(C)c(C(=O)C(=O)NC3CCc4nc(N)sc4C3)n(C)c2C)cnc1F` (stereo in doubt) [Example 138, (S)-5-(2-((2-amino-4,5,6,7-tetrahydrobenzo[d]thiazol-6-yl)amino)-2-oxoacetyl)-N-(6-fluoro-5-methylpyridin-3-yl)-1,2,4-trimethyl-1H-pyrrole-3-carboxamide] are under 0.05 µM and 0.5 to 4.99 µM.
The matching figures for `Cc1cc(NC(=O)c2c(C)c(C(=O)C(=O)NC3(c4noc(C5CC5)n4)CCCC3)n(C)c2C)ccc1F` [Example 637, 5-(2-((1-(5-cyclopropyl-1,2,4-oxadiazol-3-yl)cyclopentyl)amino)-2-oxoacetyl)-N-(4-fluoro-3-methylphenyl)-1,2,4-trimetthyl-1H-pyrrole-3-carboxamide]: under 0.05 µM and over 30 µM.
As for `Cc1c(C(=O)Nc2ccc(F)c(C#N)c2)c2n(c1C(=O)C(=O)NC(C)(C)C)CCCC2` [Example 435, 3-(2-(tert-butylamino)-2-oxoacetyl)-N-(3-cyano-4-fluorophenyl)-2-methyl-5,6,7,8-tetrahydroindolizine-1-carboxamide], the EC50 in data set [1] is over 1 µM. This compound also yielded a CC50 at 7 days in data set [2] of 5 to 30 µM.
Turning to `Cc1cc(NC(=O)c2c(C)c(C(=O)C(=O)N[C@H](C)C(F)(F)F)n(C)c2C)cnc1F` [Example 165, (R)-N-(6-fluoro-5-methylpyridin-3-yl)-1,2,4-trimethyl-5-(2-oxo-2-((1,1,1-trifluoropropan-2-yl)amino)acetyl)-1H-pyrrole-3-carboxamide], the EC50 in data set [1] is under 0.05 µM. For the same compound, in data set [2], the CC50 at 7 days was over 30 µM.
The matching figures for `CC(=O)N1CCn2c(C(=O)C(=O)NC(C)(C)C)cc(C(=O)Nc3ccc(F)c(C)c3)c2C1` [Example 590, 2-acetyl-6-(2-(tert-butylamino)-2-oxoacetyl)-N-(4-fluoro-3-methylphenyl)-1,2,3,4-tetrahydropyrrolo[1,2-a]pyrazine-8-carboxamide]: 0.5 to 1 µM and over 30 µM.
The matching figures for `Cc1cc(NC(=O)c2c(Cl)c(C(=O)C(=O)NC3(CO)CC(F)(F)C3)n3c2CCCC3)ccc1F` [Example 496, 2-chloro-3-(2-((3,3-difluoro-1-(hydroxymethyl)cyclobutyl)amino)-2-oxoacetyl)-N-(4-fluoro-3-methylphenyl)-5,6,7,8-tetrahydroindolizine-1-carboxamide]: under 0.05 µM and 5 to 30 µM.
In the same order, the values of `Cc1cc(NC(=O)c2c(C)c(C(=O)C(=O)NC(C)(C)C)n(C)c2C)ccc1F` [Example 2, 5-(2-(tert-butylamino)-2-oxoacetyl)-N-(4-fluoro-3-methylphenyl)-1,2,4-trimethyl-1H-pyrrole-3-carboxamide] are under 0.05 µM and over 30 µM.
With `Cc1cc(NC(=O)c2c(C)c(C(=O)C(=O)NC3(CO)CC3)n(C)c2C)ccc1F` [Example 7, N-(4-fluoro-3-methylphenyl)-5-(2-((1-(hydroxymethyl)cyclopropyl)amino)-2-oxoacetyl)-1,2,4-trimethyl-1H-pyrrole-3-carboxamide], in data set [1], the EC50 was under 0.05 µM. The CC50 at 7 days in data set [2] was over 30 µM.
On to `O=C(NC1(CO)CC(F)(F)C1)C(=O)c1c(Cl)c(C(=O)Nc2ccc(F)c(Cl)c2)c2n1CCC2` [Example 580, 6-chloro-N-(3-chloro-4-fluorophenyl)-5-(2-((3,3-difluoro-1-(hydroxymethyl)cyclobutyl)amino)-2-oxoacetyl)-2,3-dihydro-1H-pyrrolizine-7-carboxamide], for which the EC50 in data set [1] was under 0.05 µM. In data set [2], this compound displayed a CC50 at 7 days of 5 to 30 µM.
In the same order, the values of `Cc1noc([C@@H](C)NC(=O)C(=O)c2c(C)c(C(=O)Nc3ccc(F)c(F)c3)c3n2CCCC3)n1` [Example 454, (R)-N-(3,4-difluorophenyl)-2-methyl-3-(2-((1-(3-methyl-1,2,4-oxadiazol-5-yl)ethyl)amino)-2-oxoacetyl) 5,6,7,8-tetrahydroindolizine-1-carboxamide] are 0.05 to 0.499 µM and over 30 µM.
The matching figures for `CCn1c(C)c(C(=O)Nc2ccc(F)c(C)c2)c(C)c1C(=O)C(=O)NC(C)(C)C` [Example 96, 5-(2-(tert-butylamino)-2-oxoacetyl)-1-ethyl-N-(4-fluoro-3-methylphenyl)-2,4-dimethyl-1H-pyrrole-3-carboxamide]: under 0.05 µM and over 30 µM.
In the same order, the values of `Cc1cc(NC(=O)c2cc(C(=O)C(=O)NC(C)(C)C)n3c2COCC3)ccc1F` [Example 583, 6-(2-(tert-butylamino)-2-oxoacetyl)-N-(4-fluoro-3-methylphenyl)-3,4-dihydro-1H-pyrrolo[2,1-c][1,4]oxazine-8-carboxamide] are under 0.05 µM and over 30 µM.
Turning to `Cc1cc(NC(=O)c2c(C)c(C(=O)C(=O)NC3CCN(c4nccs4)CC3)n(C)c2C)ccc1F` [Example 656], in data set [1], the EC50 was under 0.05 µM. Besides, the CC50 at 7 days in data set [2] lay in the range of 5 to 30 µM.
In the same order, the values of `Cc1cc(NC(=O)c2c(C)c(C(=O)C(=O)NC3(CO)CC(F)(F)C3)n(C)c2C)ccc1F` [Example 126, 5-(2-((3,3-difluoro-1-(hydroxymethyl)cyclobutyl)amino)-2-oxoacetyl)-N-(4-fluoro-3-methylpheenyl)-1,2,4-trimethyl-1H-pyrrole-3-carboxamide] are under 0.05 µM and over 30 µM.
As for `Cc1c(C(=O)Nc2ccc(F)c(Cl)c2)c(C)n(C)c1C(=O)C(=O)NC(C)(C)CN1CCOCC1` [Example 332, N-(3-chloro-4-fluorophenyl)-1,2,4-trimethyl-5-(2-((2-methyl-1-morpholinopropan-2-yl)amino)-2-oxoacetyl)-1H-pyrrole-3-carboxamide], the EC50 in data set [1] is under 0.05 µM. Also, the CC50 at 7 days in data set [2] was over 30 µM.
The matching figures for `Cc1c(C(=O)Nc2ccnc(F)c2)c(C)n(C)c1C(=O)C(=O)N[C@H]1CCC[C@@H]1O` [Example 134, N-(2-fluoropyridin-4-yl)-5-(2-(((1S,2S)-2-hydroxycyclopentyl)amino)-2-oxoacetyl)-1,2,4-trimethyl-1H-pyrrole-3-carboxamide]: 0.05 to 0.499 µM and over 30 µM.
The matching figures for `Cc1noc([C@H](C)NC(=O)C(=O)c2c(Cl)c(C(=O)Nc3ccc(F)c(Cl)c3)c3n2CCCC3)n1` [Example 523, (S)-2-chloro-N-(3-chloro-4-fluorophenyl)-3-(2-((1-(3-methyl-1,2,4-oxadiazol-5-yl)ethyl)amino)-2-oxoacetyl)-5,6,7,8-tetrahydroindolizine-1-carboxamide]: 0.05 to 0.499 µM and 5 to 30 µM.
As to `Cc1c(C(=O)Nc2cc(F)c(F)c(F)c2)c(C)n(C)c1C(=O)C(=O)Nc1cccnc1` [Example 320, 1,2,4-trimethyl-5-(2-oxo-2-(pyridin-3-ylamino)acetyl)-N-(3,4,5-trifluorophenyl)-1H-pyrrole-3-carboxamide], in data set [1], the EC50 is under 0.05 µM. The compound further came in with a CC50 at 7 days in data set [2] of over 30 µM.
In the same order, the values of `O=C(NC1(CO)CCC1)C(=O)c1c(Cl)c(C(=O)Nc2ccc(F)c(F)c2)c2n1CCCC2` [Example 499, 2-chloro-N-(3,4-difluorophenyl)-3-(2-((1-(hydroxymethyl)cyclobutyl)amino)-2-oxoacetyl)-5,6,7,8-tetrahydroindolizine-1-carboxamide] are under 0.05 µM and over 30 µM.
In the case of `COC(=O)[C@H](NC(=O)C(=O)c1c(C)c(C(=O)Nc2ccc(F)c(C)c2)c(C)n1C)C1CCCCC1` [Example 56, methyl (R)-2-cyclohexyl-2-(2-(4-((4-fluoro-3-methylphenyl)carbamoyl)-1,3,5-trimethyl-1H-pyrrol-2-yl)-2-oxoacetamido)acetate], the EC50 in data set [1] is under 0.05 µM. The compound further registered a CC50 at 7 days in data set [2] of 0.5 to 4.99 µM.
For the compound `Cc1cc(NC(=O)c2c(C)c(C(=O)C(=O)NC(C)(C)COC(F)F)n(C)c2C)ccc1F` [Example 718, 5-(2-((1-(difluoromethoxy)-2-methylpropan-2-yl)amino)-2-oxoacetyl)-N-(4-fluoro-3-methylphenyl)-1,2,4-trimethyl-1H-pyrrole-3-carboxamide], the EC50 in data set [1] was under 0.05 µM. The compound also came in with a CC50 at 7 days in data set [2] of 5 to 30 µM.

Values taken from patent US20190375708A1 (VenatoRx Pharmaceuticals, Inc., priority 2018, published 2019).
